From patent publication US20180170903A1, “PYRIDIN-3-YL ACETIC ACID DERIVATIVES AS INHIBITORS OF HUMAN IMMUNODEFICIENCY VIRUS REPLICATION” (ViiV HEALTHCARE UK (NO.5) LIMITED, priority 2015, published 2018)
Read-outs that look alike come from different tables or passages of the source.

System: NL-RLuc virus (recombinant HIV NL4-3 proviral clone with Renilla Luciferase) in MT-2 cells
Experiment: Inhibition of HIV Replication (NL-RLuc luciferase reporter virus, MT-2 cells)
Type: cell-based
Details: MT2, 120 h
Description: Inhibition of HIV Replication:
A recombinant NL-RLuc proviral clone was constructed in which a section of the nef gene from NL4-3 was replaced with the Renilla Luciferase gene. This virus is fully infectious and can undergo multiple cycles of replication in cell culture. In addition, the luciferous reporter provides a simple and easy method for quantitating the extent of virus growth and consequently, the antiviral activity of test compounds. The plasmid pNLRLuc contains the proviral NL-Rluc DNA cloned into pUC 18 at the PvuII site. The NL-RLuc virus was prepared by transfection of 293T cells with the plasmid pNLRLuc. Transfections were performed using the LipofectAMINE PLUS kit from Invitrogen (Carlsbad, Calif.) according to the manufacturer and the virus generated was titered in MT-2 cells. For susceptibility analyses, the titrated virus was used to infect MT-2 cells in the presence of compound, and after 5 days of incubation, cells were processed and quantitated for virus growth by the amount of expressed luciferase. Assay media was RPMI 1640 supplemented with 10% heat inactivated fetal bovine serum (FBS), 100 units/ml penicillin G/100 units/ml streptomycin, 10 mM HEPES buffer pH 7.55 and 2 mM L-glutamine. The results from at least 2 experiments were used to calculate the EC50 values. Luciferase was quantitated using the Dual Luciferase kit from Promega (Madison, Wis.). Susceptibility of viruses to compounds was determined by incubation in the presence of serial dilutions of the compound. The 50% effective concentration (EC50) was calculated by using the exponential form of the median effect equation where (Fa)=1/[1+(ED50/drug conc.)^m](Johnson V A, Byington R T. Infectivity Assay. In Techniques in HIV Research. ed. Aldovini A, Walker B D. 71-76. New York: Stockton Press. 1990). Activity equal to A refers to a compound having an EC50≤100 nM, while B and C denote compounds having an EC50 between 100 nM and 1 uM (B) or >1 uM (C).

| Structure (SMILES) | EC50 (read-out: Activity) [µM] | EC50 (read-out: EC50 μM) [µM] |
| --- | --- | --- |
| Cc1cc(CNCc2ccc(-c3c(C)nc(C)c([C@H](OC(C)(C)C)C(=O)O)c3N3CCC(C)(C)CC3)cc2)ccc1F [Example 1, (S)-2-(tert-Butoxy)-2-(4-(4,4-dimethylpiperidin-1-yl)-5-(4-(((4-fluoro-3-methylbenzyl)amino)methyl)phenyl)-2,6-dimethylpyridin-3-yl)acetic acid] | < 0.1 | 0.013 |
| Cc1nc(C)c([C@H](OC(C)(C)C)C(=O)O)c(N2CCC(C)(C)CC2)c1-c1ccc(CN2CCOCC2)cc1 [Example 2, (S)-2-(tert-Butoxy)-2-(4-(4,4-dimethylpiperidin-1-yl)-2,6-dimethyl-5-(4-(morpholinomethyl)phenyl)pyridin-3-yl)acetic acid] | 0.1 to 1 | 0.113 |
| Cc1nc(C)c([C@H](OC(C)(C)C)C(=O)O)c(N2CCC(C)(C)CC2)c1-c1ccc(CN(Cc2ccc(F)cc2)CC2CCCO2)cc1 (stereo partly drawn) [Example 3, (2S)-2-(tert-Butoxy)-2-(4-(4,4-dimethylpiperidin-1-yl)-5-(4-(((4-fluorobenzyl) ((tetrahydrofuran-2-yl)methyl)amino)methyl)phenyl)-2,6-dimethylpyridin-3-yl)acetic acid] | < 0.1 | – |
| Cc1nc(C)c([C@H](OC(C)(C)C)C(=O)O)c(N2CCC(C)(C)CC2)c1-c1ccc(CNCc2ccc(F)cc2)cc1 [Example 4, (S)-2-(tert-butoxy)-2-(4-(4,4-dimethylpiperidin-1-yl)-5-(4-(((4-fluorobenzyl)amino)methyl)phenyl)-2,6-dimethylpyridin-3-yl)acetic acid] | < 0.1 | – |
| Cc1nc(C)c([C@H](OC(C)(C)C)C(=O)O)c(N2CCC(C)(C)CC2)c1-c1ccc(CN(C)CCc2ccc(F)cc2)cc1 [Example 5, (S)-2-(tert-butoxy)-2-(4-(4,4-dimethylpiperidin-1-yl)-5-(4-(((4-fluorophenethyl)(methyl)amino)methyl)phenyl)-2,6-dimethylpyridin-3-yl)acetic acid] | < 0.1 | – |
| Cc1nc(C)c([C@H](OC(C)(C)C)C(=O)O)c(N2CCC(C)(C)CC2)c1-c1ccc(CNCCC(C)(C)C)cc1 [Example 6, (S)-2-(tert-butoxy)-2-(5-(4-(((3,3-dimethylbutyl)amino)methyl)phenyl)-4-(4,4-dimethylpiperidin-1-yl)-2,6-dimethylpyridin-3-yl)acetic acid] | 0.1 to 1 | – |
| Cc1nc(C)c([C@H](OC(C)(C)C)C(=O)O)c(N2CCC(C)(C)CC2)c1-c1ccc(CN(C)Cc2ccc(F)cc2)cc1 [Example 7, (S)-2-(tert-butoxy)-2-(4-(4,4-dimethylpiperidin-1-yl)-5-(4-(((4-fluorobenzyl)(methyl)amino)methyl)phenyl)-2,6-dimethylpyridin-3-yl)acetic acid] | < 0.1 | – |
| COc1ccc(CCNCc2ccc(-c3c(C)nc(C)c([C@H](OC(C)(C)C)C(=O)O)c3N3CCC(C)(C)CC3)cc2)cc1 [Example 8, (S)-2-(tert-butoxy)-2-(4-(4,4-dimethylpiperidin-1-yl)-5-(4-(((4-methoxyphenethyl)amino)methyl)phenyl)-2,6-dimethylpyridin-3-yl)acetic acid] | < 0.1 | 0.09 |
| COc1ccccc1CCNCc1ccc(-c2c(C)nc(C)c([C@H](OC(C)(C)C)C(=O)O)c2N2CCC(C)(C)CC2)cc1 [Example 9, (S)-2-(tert-butoxy)-2-(4-(4,4-dimethylpiperidin-1-yl)-5-(4-(((2-methoxyphenethyl)amino)methyl)phenyl)-2,6-dimethylpyridin-3-yl)acetic acid] | < 0.1 | – |
| CON(Cc1ccc(F)cc1)Cc1ccc(-c2c(C)nc(C)c([C@H](OC(C)(C)C)C(=O)O)c2N2CCC(C)(C)CC2)cc1 [Example 10, (S)-2-(tert-butoxy)-2-(4-(4,4-dimethylpiperidin-1-yl)-5-(4-(((4-fluorobenzyl)(methoxy)amino)methyl)phenyl)-2,6-dimethylpyridin-3-yl)acetic acid] | < 0.1 | – |
| Cc1nc(C)c([C@H](OC(C)(C)C)C(=O)O)c(N2CCC(C)(C)CC2)c1-c1ccc(CNCCc2ccc(F)cc2)cc1 [Example 11, (S)-2-(tert-butoxy)-2-(4-(4,4-dimethylpiperidin-1-yl)-5-(4-(((4-fluorophenethyl)amino)methyl)phenyl)-2,6-dimethylpyridin-3-yl)acetic acid] | < 0.1 | – |
| Cc1nc(C)c([C@H](OC(C)(C)C)C(=O)O)c(N2CCC(C)(C)CC2)c1-c1ccc(CNCc2ccc(Cl)c(Cl)c2)cc1 [Example 12, (S)-2-(tert-butoxy)-2-(5-(4-(((3,4-dichlorobenzyl)amino)methyl)phenyl)-4-(4,4-dimethylpiperidin-1-yl)-2,6-dimethylpyridin-3-yl)acetic acid] | < 0.1 | – |
| Cc1nc(C)c([C@H](OC(C)(C)C)C(=O)O)c(N2CCC(C)(C)CC2)c1-c1ccc(CNCCC2CCCCC2)cc1 [Example 13, (S)-2-(tert-butoxy)-2-(5-(4-(((2-cyclohexylethyl)amino)methyl)phenyl)-4-(4,4-dimethylpiperidin-1-yl)-2,6-dimethylpyridin-3-yl)acetic acid] | 0.1 to 1 | – |
| Cc1nc(C)c([C@H](OC(C)(C)C)C(=O)O)c(N2CCC(C)(C)CC2)c1-c1ccc(CNCc2ccccc2)cc1 [Example 14, (S)-2-(5-(4-((benzylamino)methyl)phenyl)-4-(4,4-dimethylpiperidin-1-yl)-2,6-dimethylpyridin-3-yl)-2-(tert-butoxy)acetic acid] | < 0.1 | – |
| Cc1nc(C)c([C@H](OC(C)(C)C)C(=O)O)c(N2CCC(C)(C)CC2)c1-c1ccc(CNCc2ccc(Cl)cc2)cc1 [Example 15, (S)-2-(tert-butoxy)-2-(5-(4-(((4-chlorobenzyl)amino)methyl)phenyl)-4-(4,4-dimethylpiperidin-1-yl)-2,6-dimethylpyridin-3-yl)acetic acid] | < 0.1 | – |
| Cc1ccc(CNCc2ccc(-c3c(C)nc(C)c([C@H](OC(C)(C)C)C(=O)O)c3N3CCC(C)(C)CC3)cc2)cc1 [Example 16, (S)-2-(tert-butoxy)-2-(4-(4,4-dimethylpiperidin-1-yl)-2,6-dimethyl-5-(4-(((4-methylbenzyl)amino)methyl)phenyl)pyridin-3-yl)acetic acid] | < 0.1 | – |
| Cc1nc(C)c([C@H](OC(C)(C)C)C(=O)O)c(N2CCC(C)(C)CC2)c1-c1ccc(CNCC2CCCCC2)cc1 [Example 17, (S)-2-(tert-butoxy)-2-(5-(4-(((cyclohexylmethyl)amino)methyl)phenyl)-4-(4,4-dimethylpiperidin-1-yl)-2,6-dimethylpyridin-3-yl)acetic acid] | 0.1 to 1 | – |
| COC(=O)c1ccc(CNCc2ccc(-c3c(C)nc(C)c([C@H](OC(C)(C)C)C(=O)O)c3N3CCC(C)(C)CC3)cc2)cc1 [Example 18, (S)-2-(tert-butoxy)-2-(4-(4,4-dimethylpiperidin-1-yl)-5-(4-(((4-(methoxycarbonyl)benzyl)amino)methyl)phenyl)-2,6-dimethylpyridin-3-yl)acetic acid] | 0.1 to 1 | 0.228 |
| Cc1nc(C)c([C@H](OC(C)(C)C)C(=O)O)c(N2CCC(C)(C)CC2)c1-c1ccc(CNCc2ccc(C(=O)O)cc2)cc1 [Example 19, (S)-4-(((4-(5-(tert-butoxy(carboxy)methyl)-4-(4,4-dimethylpiperidin-1-yl)-2,6-dimethylpyridin-3-yl)benzyl)amino)methyl)benzoic acid] | > 1 | 2.07 |
| Cc1nc(C)c([C@H](OC(C)(C)C)C(=O)O)c(N2CCC(C)(C)CC2)c1-c1ccc(CN(Cc2ccc(F)cc2)C(=O)C2CCCC2)cc1 [Example 20, (S)-2-(tert-butoxy)-2-(4-(4,4-dimethylpiperidin-1-yl)-5-(4-((N-(4-fluorobenzyl)cyclopentanecarboxamido)methyl)phenyl)-2,6-dimethylpyridin-3-yl)acetic acid] | < 0.1 | – |
| Cc1nc(C)c([C@H](OC(C)(C)C)C(=O)O)c(N2CCC(C)(C)CC2)c1-c1ccc(CN(Cc2ccc(F)cc2)C(=O)c2ccccc2)cc1 [Example 21, (S)-2-(tert-butoxy)-2-(4-(4,4-dimethylpiperidin-1-yl)-5-(4-((N-(4-fluorobenzyl)benamido)methyl)phenyl)-2,6-dimethylpyridin-3-yl)acetic acid] | < 0.1 | – |
| CCC(=O)N(Cc1ccc(F)cc1)Cc1ccc(-c2c(C)nc(C)c([C@H](OC(C)(C)C)C(=O)O)c2N2CCC(C)(C)CC2)cc1 [Example 22, (S)-2-(tert-butoxy)-2-(4-(4,4-dimethylpiperidin-1-yl)-5-(4-((N-(4-fluorobenzyl)propionamido)methyl)phenyl)-2,6-dimethylpyridin-3-yl)acetic acid] | < 0.1 | – |
| Cc1nc(C)c([C@H](OC(C)(C)C)C(=O)O)c(N2CCC(C)(C)CC2)c1-c1ccc(CN(Cc2ccc(F)cc2)C(=O)C(C)C)cc1 [Example 23, (S)-2-(tert-butoxy)-2-(4-(4,4-dimethylpiperidin-1-yl)-5-(4-((N-(4-fluorobenzyl)isobutyramido)methyl)phenyl)-2,6-dimethylpyridin-3-yl)acetic acid] | < 0.1 | – |
